These results are taken from US5571816A, “Pyrimidines” (Hoechst Aktiengesellschaft, priority 1992, dated 1996).

The structures appear in SMILES notation. Counter-ions that a name gives are not always drawn. Like-named read-outs stand apart in the source and are kept apart here.

The nature of series [1]: Solubility in water of salts (and free bases). It counts as physicochemical. The note with it: for solubility: water.
A further series has as its system serum lipoproteins. Nature of the series: Effect on serum lipoproteins of normolipemic male rats in a subchronic experiment. The series is classed as in vivo. The note with it: Rattus norvegicus, po, by stomach tube, 7 administrations; for change in vivo at 100 mg/kg: 100 mg/kg/day; for change in vivo at 3 mg/kg: 3 mg/kg/day; for change in vivo at 10 mg/kg: 10 mg/kg/day; for change in vivo at 30 mg/kg: 30 mg/kg/day. The protocol: 3. In vivo, the increased LDL receptor activity in experimental animals is reflected by reduction in the lipoprotein fractions which can be metabolized by the LDL receptor (apoB/E receptor), i.e. a reduction in the LDL and VLDL levels is observed. The following test was carried out:
Effect on serum lipoproteins of normolipemic male rats in a subchronic experiment
Groups of in each case 10 male rats of the HOE: WISKf (SPF 71) strain with an initial weight above 180 g received once a day (in the morning) the test product or the comparison product in 1% aqueous ®Tylose MH 300 solution by stomach tube (0.5 ml/100 g of body weight); the control group in each case received only the vehicle. The last (7th) administration took place 24 hours before removal of blood and sacrifice. There was free access to food and water during the test. The food was withdrawn 24 hours before the removal of blood.
The serum from all 10 rats in a group was pooled for the analysis of the serum lipoproteins. The serum lipoproteins were separated with a preparative ultracentrifuge (KONTRON TGA 65, Rotor BECKMAN 50.4 Ti).
The following conditions specified by Koga, S., Horwitz, D. L., and Scanu, A. M., Journal of Lipid Research 10, 577 (1969) and Havel, R. J., Eder, H. A., and Bragdon, H. H., J. Clin. Invest. 34, 1345 (1955) were used to separate VLDL and LDL: 1. VLDL: Density<1.006, 40,000 rpm for 16 hours 2. LDL: Density 1.006-1.04, 40,000 rmp for 16 hours
Test kits from BOEHRINGER/Mannheim were used for the enzymatic determination of cholesterol and triglycerides in the separated lipoprotein fractions (cf. Siedel, J., Schlumberger, H., Klose, S., Ziegenhorn, J. and Wahlefeld, A. W., J. Clin. Chem. Clin. Biochem. 19, 838 (1981) and Wahlefeld, A. W., in: H. O. Bergmeier: Methoden der enzymatischen Analyse (Methods of Enzymatic Analysis), 2nd edition, Volume II, Verlag Chemie 1974, page 1878). The proteins were determined by the method of Lowry (Lowry, O. H., Roseborough, N. H., Farr, A. L. and Randell, R. J., J. Biol. Chem. 193, 265 (1951)).
Clofibrate was used as comparison product.

Where [2] appears, read: read-out: Serum LDL cholesterol, % change from control at end of treatment.
The mark [3] stands for this setting: read-out: Serum LDL protein, % change from control at end of treatment.
Where [4] appears, read: read-out: Serum VLDL cholesterol, % change from control at end of treatment.
[5] abbreviates: read-out: Serum VLDL protein, % change from control at end of treatment.
The mark [6] stands for this setting: read-out: Serum VLDL triglycerides, % change from control at end of treatment.
The mark [7] stands for this setting: Table 2, salts of compounds I, temp. by No. [°C]: 1 25.5, 2 23.0, 3 22.4, 4 22.4, 5 22.0, 6 25.0, 7 25.5, 8 25.5, 9 25.5, 10 23.5, 11 23.5, 12 25.0, 13 24.0, 14 23.0, 15 22.0, 16 24.5, 17 22.5, 18 22.0.
The mark [8] stands for this setting: Table 2, salts of compounds I, temp. by No. [°C]: 1 25.5, 2 23.0, 3 22.4, 4 22.4, 5 22.0, 6 25.0, 7 25.5, 8 25.5, 9 25.5, 10 23.5, 11 23.5, 12 25.0, 13 24.0, 14 23.0, 15 22.0, 16 24.5, 17 22.5, 18 22.0, read-out: Solubility in water, Concentration in % by wt.
[9] abbreviates: Table 2, salts of compounds I, temp. by No. [°C]: 1 25.5, 2 23.0, 3 22.4, 4 22.4, 5 22.0, 6 25.0, 7 25.5, 8 25.5, 9 25.5, 10 23.5, 11 23.5, 12 25.0, 13 24.0, 14 23.0, 15 22.0, 16 24.5, 17 22.5, 18 22.0, nitrate.

For the compound `CC1(C)CN(c2ncc(C(=O)Nc3cccc(C(F)(F)F)c3)c(N)n2)C(=O)N1` [4-amino-2-(4,4-dimethylimidazolidin-2-on-1-yl)pyrimidine-5-carboxylic acid N-(3-trifluoromethylphenyl)amide, reference compound], in series [1] (categories of the Deutsches Arzneibuch), the “solubility in water, in words” value is listed as “exceptionally slightly soluble”.

As for `CCOC(=O)C(C)(C)Oc1ccc(Cl)cc1` [Clofibrate, reference compound], the change in vivo at 100 mg/kg in the series on serum lipoproteins (setting [2]) was -31%; in the series with serum lipoproteins (setting [3]) it was -3%; with serum lipoproteins (setting [4]), -51%; with serum lipoproteins (setting [5]), -30%; in the series with serum lipoproteins (setting [6]), -34%.

As to `CCN(C(=O)c1cnc(N2CC(C)(C)NC2=O)nc1N)c1cccc(C(F)(F)F)c1` [Example 1, 4-amino-2-(4,4-dimethyl-2-oxo-1-imidazolidinyl)pyrimidine-5-carboxylic acid N-ethyl-N-(3-trifluoromethylphenyl)amide], in series [1] (setting [7]), the “1 part by mass dissolves in ... parts by H2O” value (from here on “1 part by mass dissolves”) was found to be 13.5 parts by H2 O. Moreover, the solubility in series [1] (setting [8]) turned out to be 68.9 mg/mL.

For the compound `CC(C)N(C(=O)c1cnc(N2CC(C)(C)NC2=O)nc1N)c1cccc(C(F)(F)F)c1` [Example 3, 4-amino-2-(4,4-dimethyl-2-oxo-1-imidazolidinyl)pyrimidine-5-carboxylic acid N-isopropyl-N-(3-trifluoromethylphenyl)amide], in series [1] (setting [7]), the “1 part by mass dissolves” value was found to be 24.7 parts by H2 O. Besides, in series [1] (setting [8]), the solubility is 38.9 mg/mL.

For `CCCCN(C(=O)c1cnc(N2CC(C)(C)NC2=O)nc1N)c1cccc(C(F)(F)F)c1` [Example 6, 4-amino-2-(4,4-dimethyl-2-oxo-1-imidazolidinyl)pyrimidine-5-carboxylic acid N-butyl-N-(3-trifluromethylphenyl)amide hydrochloride], the change in vivo at 3 mg/kg in the series with serum lipoproteins (setting [2]) is -24%; in the series on serum lipoproteins (setting [3]), -3%; in the series with serum lipoproteins (setting [4]), -35%; with serum lipoproteins (setting [5]) it was -12%. In addition, the change in vivo at 10 mg/kg in the series on serum lipoproteins (setting [2]) is -20%; in the series with serum lipoproteins (setting [3]), -62%; with serum lipoproteins (setting [4]) it was -35%; in the series with serum lipoproteins (setting [5]), -15%. In addition, the change in vivo at 30 mg/kg in the series on serum lipoproteins (setting [2]) is -62%; in the series on serum lipoproteins (setting [3]), -36%; in the series with serum lipoproteins (setting [4]) it was 41%; in the series with serum lipoproteins (setting [5]) it was -41%; in the series with serum lipoproteins (setting [6]), -69%.

`CN(C(=O)c1cnc(N2CC(C)(C)NC2=O)nc1N)c1cc(C(F)(F)F)ccc1Cl` [Example 29]: the change in vivo at 30 mg/kg is -51% in the series with serum lipoproteins (setting [2]); -27% with serum lipoproteins (setting [3]); -80% in the series with serum lipoproteins (setting [4]); 40% in the series with serum lipoproteins (setting [5]); -70% in the series on serum lipoproteins (setting [6]).

As for `CN(C(=O)c1cnc(N2CC(C)(C)NC2=O)nc1N)c1ccc(Br)c(C(F)(F)F)c1` [Example 30], the change in vivo at 10 mg/kg in the series on serum lipoproteins (setting [2]) is -25%; in the series on serum lipoproteins (setting [3]), -19%; with serum lipoproteins (setting [4]) it was -29%; in the series on serum lipoproteins (setting [5]), -36%; in the series with serum lipoproteins (setting [6]) it was 7%.

Consider `CC(C)CN(C(=O)c1cnc(N2CC(C)(C)NC2=O)nc1N)c1cccc(C(F)(F)F)c1` [Example 36], for which the change in vivo at 30 mg/kg in the series with serum lipoproteins (setting [2]) is -38%; with serum lipoproteins (setting [3]) it was -5%; with serum lipoproteins (setting [4]), -65%; with serum lipoproteins (setting [5]), -33%; in the series on serum lipoproteins (setting [6]) it was 42%.

Regarding `CC(C)CC(C)N(C(=O)c1cnc(N2CC(C)(C)NC2=O)nc1N)c1cccc(C(F)(F)F)c1` (stereo not drawn) [Example 38], the “1 part by mass dissolves” value in series [1] (setting [7]) was 15.3 parts by H2 O. Besides, the solubility in series [1] (setting [8]) was 61.3 mg/mL.

On to `CC1(C)CN(c2ncc(C(=O)N(CC3CC3)c3cc(C(F)(F)F)ccc3F)c(N)n2)C(=O)N1` [Example 41], for which the change in vivo at 10 mg/kg in the series on serum lipoproteins (setting [2]) is -73%; in the series with serum lipoproteins (setting [3]), -48%; in the series with serum lipoproteins (setting [4]), -100%; in the series on serum lipoproteins (setting [5]), -52%; in the series with serum lipoproteins (setting [6]), -68%. Besides, the change in vivo at 30 mg/kg in the series with serum lipoproteins (setting [2]) is -66%; in the series with serum lipoproteins (setting [3]), -36%; with serum lipoproteins (setting [4]), -100%; in the series on serum lipoproteins (setting [5]), -45%; in the series with serum lipoproteins (setting [6]) it was -80%.

As for `CCCCCN(C(=O)c1cnc(N2CC(C)(C)NC2=O)nc1N)c1cccc(C(F)(F)F)c1` [Example 47, 4-amino-2-(4,4-dimethyl-2-oxo-1-imidazolidinyl)pyrimidine-5-carboxylic acid N-pentyl-N-(3-trifluoromethylphenyl)amide hydrochloride], the “1 part by mass dissolves” value in series [1] (setting [7]) is recorded as 51.3 parts by H2 O. Also, the solubility in series [1] (setting [8]) is 18.7 mg/mL.

On to `CCCCN(C(=O)c1cnc(N2CCNC2=O)nc1N)c1cccc(C(F)(F)F)c1` [Example 55, 4-amino-2-(2-oxo-1-imidazolidinyl)pyrimidine-5-carboxylic acid N-butyl-N-(3-trifluoromethylphenyl)amide hydrochloride], for which the change in vivo at 30 mg/kg in the series on serum lipoproteins (setting [2]) is -29%; in the series on serum lipoproteins (setting [3]), -9%; in the series with serum lipoproteins (setting [4]), -14%; with serum lipoproteins (setting [5]), -18%; in the series on serum lipoproteins (setting [6]), -20%.

As for `CCN(C(=O)c1cnc(N2CC(C)(C)NC2=O)nc1N)c1cc(C(F)(F)F)ccc1F` [Example 60, 4-amino-2-(4,4-dimethyl-2-oxo-1-imidazolidinyl)pyrimidine-5-carboxylic acid N-ethyl-N-(2-fluoro-5-trifluoromethylphenyl)amide nitrate], in series [1] (setting [9]), the “1 part by mass dissolves” value came out at 57.5 parts by H2 O and the “Solubility in water, Concentration in % by wt.” value was 1.71 % by wt. Further, in series [1] (temperature not stated, read-out: soluble in a concentration in water), the solubility amounted to 17 mg/mL.
